Laboratory results published in PMC10938758, “A phenotypic screen of the Global Health Priority Box identifies an insecticide with anthelmintic activity” (Parasites & Vectors, 2024).
Read-outs that look alike come from different tables or passages of the source.

How the values were obtained:
[1] = system: exsheathed third-stage larvae (xL3s) of Haemonchus contortus; experiment: Primary screen, H. contortus larval development and phenotype (microscopy)
Procedure: An established high-throughput phenotypic screening assay was used to test the anthelmintic activity of compounds on H. contortus xL3s. Compounds were assessed for motility inhibition at a concentration of 20 µM in LB*. […] A solution of LB* + 1% (v/v) DMSO was used as a negative control. Test compounds were distributed amongst one flat-bottom, 384-well microplate (cat no. 3860; Corning, Corning, NY, USA). Eighty xL3s of H. contortus in 20 µl of LB* were added to each well to give a final volume of 40 µl. The plate was then placed in a CO2 incubator (10% [v/v] CO2, 38 °C, > 90% humidity). At 90 h, worm activity was captured using a WMicroTracker ONE unit (Phylumtech, Sunchales, Santa Fe, Argentina). Over a period of 15 min, disturbance of an infrared beam in individual wells was recorded as a worm ‘activity count’. Activity counts were then normalised to the positive and negative controls using the GraphPad Prism program (v.9.1.0 GraphPad Software, San Diego, CA, USA). The screening plate was then returned to the incubator (10% [v/v] CO2, 38 °C, > 90% humidity) for an additional 72 h. At 168 h, worms were fixed with 40 µl of Lugol solution (Sigma-Aldrich, St. Louis, MO, USA). Compounds were then assessed (microscopically) for inhibition of larval development and/or induction of a non-wild-type phenotype in H. contortus worms. […] The performance of the assay was monitored using the Z′-factor [58] calculated using data for the negative (DMSO) and positive (M-666) control compounds on individual plates.

[2] = system: H. contortus xL3s; experiment: H. contortus dose-response assay, xL3 motility; parameters: species or system Haemonchus contortus; conditions: xL3s, 90 h of incubation; for IC50: read-out: IC50, H. contortus larval motility inhibition
Procedure: The dose–response assay for H. contortus followed a well-established protocol; it was employed to evaluate the potency of hit compounds against this nematode. Test compounds were assessed individually for an effect on the motility of xL3s (10-point, twofold serial dilution in LB*, 40–0.16 μM). One compound, monepantel (prepared in the same manner as the test compounds), was used as a positive control. A solution of LB* was used as a negative control. The test and positive-control compounds were arrayed in triplicate across individual flat-bottom 96-well microplates, with six wells on each plate containing the negative control. Three hundred xL3s of H. contortus in 50 μl of LB* were added to each well to give a final volume of 100 μl. Plates were then placed in a CO2 incubator (10% [v/v] CO2, 38 °C, > 90% humidity). […] Over a period of 15 min, disturbance of an infrared beam in individual wells was recorded as a worm activity count. Raw activity counts for each well were normalised to the negative controls. The compound concentrations were log10-transformed and fitted using a variable-slope four-parameter equation, using the ordinary least squares fit model, employing GraphPad Prism (v.9.1.0). Larval development was established at 168 h of incubation with compound, as described previously. The development inhibition and phenotypes of larvae were examined microscopically. A one-way analysis of variance (ANOVA) with a Tukey multiple comparison test or an unpaired t-test was used to establish statistically significant differences in larval motility or development.

[3] = system: rat hepatoma (FAO cell line) cells; conditions: cited from earlier work
[4] = system: H. contortus larvae; experiment: H. contortus dose-response assay, larval development; parameters: species or system Haemonchus contortus; conditions: 168 h of incubation, read-out: IC50, inhibition of H. contortus larval development
Procedure: The dose–response assay for H. contortus followed a well-established protocol; it was employed to evaluate the potency of hit compounds against this nematode. Test compounds were assessed individually for an effect on the motility of xL3s (10-point, twofold serial dilution in LB*, 40–0.16 μM). One compound, monepantel (prepared in the same manner as the test compounds), was used as a positive control. A solution of LB* was used as a negative control. The test and positive-control compounds were arrayed in triplicate across individual flat-bottom 96-well microplates, with six wells on each plate containing the negative control. Three hundred xL3s of H. contortus in 50 μl of LB* were added to each well to give a final volume of 100 μl. Plates were then placed in a CO2 incubator (10% [v/v] CO2, 38 °C, > 90% humidity). After 168 h of incubation, worm activity was captured using a WMicroTracker ONE unit. Over a period of 15 min, disturbance of an infrared beam in individual wells was recorded as a worm activity count. Raw activity counts for each well were normalised to the negative controls. The compound concentrations were log10-transformed and fitted using a variable-slope four-parameter equation, using the ordinary least squares fit model, employing GraphPad Prism (v.9.1.0). Larval development was established at 168 h of incubation with compound, as described previously. The development inhibition and phenotypes of larvae were examined microscopically. A one-way analysis of variance (ANOVA) with a Tukey multiple comparison test or an unpaired t-test was used to establish statistically significant differences in larval motility or development.

[5] = system: adult females of H. contortus; experiment: Motility of H. contortus adult females (video scoring); parameters: species or system Haemonchus contortus; conditions: 40 μM
Procedure: The activity of two test compounds was assessed on adult female specimens of H. contortus in an established assay. The compound was added in triplicate to the wells of a 24-well plate (Corning, USA) at a concentration of 40 μM in 500 μl of RPMI*. Two positive-control compounds, monepantel and moxidectin, and a negative control containing 1% (v/v) DMSO only were included in triplicate on the same plate. Three adult females were added to each of the triplicate wells containing either the test compound or the controls and placed in a CO2 incubator (10% [v/v] CO2, 38 °C, > 90% relative humidity) for 24 h. A video recording (30 s) of each well was taken at 3 h, 6 h, 12 h and 24 h during the total incubation period to assess the reduction in worm motility, which was scored as 3 (‘good’), 2 (‘low’), 1 (‘very low’) or 0 (‘no movement’; cf.). For each test or control compound, the motility scores for each of the triplicate wells were calculated, normalised with reference to the negative control (100% motility) and recorded as a percentage. A two-way ANOVA with a Tukey multiple comparison test was used to establish statistically significant differences in worm motility.

[6] = system: C. elegans young adults; experiment: C. elegans dose-response assay, motility; parameters: species or system Caenorhabditis elegans; conditions: 40 h of incubation
Procedure: The dose–response assay for C. elegans followed a well-established protocol and was employed to evaluate the potency of hit compounds against this nematode. Test and positive-control compounds as well as negative controls were prepared in 96-well microplates (cf.). One hundred C. elegans in 50 μl of LB* were added to each well to give a final volume of 100 μl. Plates were then placed in an incubator at 20 °C for 40 h. At 40 h, worm activity was captured using a WMicroTracker ONE unit. Raw activity counts for each well were normalised to the negative controls. The compound concentrations were log10-transformed and fitted using a variable-slope four-parameter equation, using the ordinary least squares fit model, employing GraphPad Prism (v.9.1.0). A one-way ANOVA with a Tukey multiple comparison test or an unpaired t-test was used to establish statistically significant differences in larval motility.

[7] = H. contortus larvae; 20 µM; 168 h
[8] = Haemonchus contortus, 168 h, H. contortus, 20 µM, read-out: Larval development inhibition, %

## CO[C@H]1C[C@H](O[C@@H]2/C(C)=C/C[C@@H]3C[C@@H](C[C@]4(CC[C@H](C)[C@@H](C5CCCCC5)O4)O3)OC(=O)[C@@H]3C=C(C)/C(=N/O)[C@H]4OC/C(=C\C=C\[C@@H]2C)[C@]43O)O[C@@H](C)[C@@H]1O [MMV002231, selamectin]
[1]; [7]
  Abnormal phenotype: Cur
[1]; [8]
  inhibition at 20 µM: ≥ 90%

## C=C(C)[C@H]1Cc2c(ccc3c2O[C@@H]2COc4cc(OC)c(OC)cc4[C@@H]2C3=O)O1 [MMV002519, rotenone]
[1]; [7]
  Abnormal phenotype: Str
  Induction of an abnormal phenotype (in words): induced an abnormal phenotype
[1]; Haemonchus contortus, 168 h, read-out: Larval development inhibition; %
  inhibition at 20 µM: 100%

## O=C(Nc1ccc(Cl)c(C(F)(F)F)c1)Nc1ccc(Cl)c(C(F)(F)F)c1 [MMV027339]
[1]; [7]
  Induction of an abnormal phenotype (in words): did not inhibit development or induce an abnormal phenotype
[2]
  IC50: > 40000 nM

## CCc1nn(C)c(C(=O)NCc2ccc(Oc3ccc(C)cc3)cc2)c1Cl [MMV688934, tolfenpyrad]
[1]; [7]
  Abnormal phenotype: Str
  Induction of an abnormal phenotype (in words): induced an abnormal phenotype
[1]; Haemonchus contortus; H. contortus; 20 µM; 168 h; read-out: Larval development inhibition; %
  inhibition at 20 µM: 100%
[3]
  Respiration in FAO cells: inhibit respiration

## CCOCn1c(-c2ccc(Cl)cc2)c(C#N)c(Br)c1C(F)(F)F [MMV1577458, chlorfenapyr]
[1]; [7]
  Abnormal phenotype: Cur
  Induction of an abnormal phenotype (in words): induced an abnormal phenotype
[1]; [8]
  inhibition at 20 µM: 100%

## CO/N=C1\C[C@]2(C[C@@H]3C[C@@H](C/C=C(\C)C[C@@H](C)/C=C/C=C4\CO[C@@H]5[C@H](O)C(C)=C[C@@H](C(=O)O3)[C@]45O)O2)O[C@H](/C(C)=C/C(C)C)[C@H]1C [MMV1633828, moxidectin]
[1]; [8]
  inhibition at 20 µM: ≥ 90%

## COc1cc(/C=N/c2c(SC(F)(F)F)c(C#N)nn2-c2c(Cl)cc(C(F)(F)F)cc2Cl)ccc1O [MMV1794214]
[1]; [7]
  Induction of an abnormal phenotype (in words): did not inhibit development or induce an abnormal phenotype
[2]
  Maximum motility inhibition (MMI), H. contortus larvae: 70%
  IC50: 4500 ± 1100 nM
[4]
  IC50: > 40000 nM
[5]; 3 h
  Reduction of motility of adult females of H. contortus: ~ 0%
[5]; 6 h
  Reduction of motility of adult females of H. contortus: ~ 0%
[5]; 12 h
  Reduction of motility of adult females of H. contortus: ~23%
[5]; 24 h
  Reduction of motility of adult females of H. contortus: ~15%

## C[C@](C#N)(COc1cc(C#N)ccc1C(F)(F)F)NC(=O)c1ccc(SC(F)(F)F)cc1 [Monepantel, monepantel]
[1]; [7]
  Abnormal phenotype: Coi
[1]; [8]
  inhibition at 20 µM: 100%
[2]; Haemonchus contortus
  IC50: 330 ± 120 nM
[2]
  Maximum motility inhibition (MMI), H. contortus larvae: 95%
[4]; Haemonchus contortus
  IC50: 260 ± 30 nM
[6]
  Maximum motility inhibition (MMI), C. elegans: 95%
[6]; Caenorhabditis elegans, read-out: IC50, C. elegans young adult motility
  IC50: 30 ± 10 nM
[5]; 3 h
  Reduction of motility of adult females of H. contortus: ~ 0%
[5]; 6 h
  Reduction of motility of adult females of H. contortus: ~23%
[5]; 12 h
  Reduction of motility of adult females of H. contortus: ~66%
[5]; 24 h
  Reduction of motility of adult females of H. contortus: ~100%

## CO/N=C1\C[C@]2(C[C@@H]3C[C@@H](C/C=C(\C)C[C@@H](C)/C=C/C=C4\CO[C@@H]5[C@H](O)C(C)=C[C@@H](C(=O)O3)[C@]45O)O2)O[C@H](/C(C)=C/C(C)C)[C@H]1C [Moxidectin, moxidectin]
[1]; H. contortus; 20 µM; 168 h
  Larval development inhibition; %: 100%

## abamectin [MMV1577454]
[1]; [7]
  Abnormal phenotype: Str
